Measured values taken from PMC11845761, “Intestinal human carboxylesterase 2 (CES2) expression rescues drug metabolism and most metabolic syndrome phenotypes in global Ces2 cluster knockout mice” (Acta Pharmacologica Sinica, 2024).

What was measured:
[1] = Tissue concentrations of capecitabine and its metabolites 2 h after oral capecitabine in CES2-modified mice; assay type: in vivo, mouse; conditions: oral capecitabine 500 mg/kg
Method: (§1) For capecitabine 2-h experiments, 6–7 female mice received oral capecitabine (500 mg/kg, 10 μL/g), and tail vein blood samples were collected at 0.125, 0.25, 0.5 and 1 h after drug administration. For the vinorelbine 4-h experiment, 6-7 male mice received vinorelbine intravenously (10 mg/kg, 5 μL/g) or orally (10 mg/kg, 10 μL/g) using a blunt-ended needle. Tail vein blood samples were collected at 0.125, 0.25, 0.5, 1 and 2 h after drug administration. […] At the last time point in each experiment (2 or 4 h), mice were anesthetized with 5% isoflurane and blood was collected by cardiac puncture. […] Plasma was isolated from the blood by centrifugation at 9000 × g for 6 min at 4 °C, and the plasma fraction was collected and stored at −30 °C until analysis.
(§2) Concentrations of capecitabine (and its metabolites) and vinorelbine (and its metabolite) in mouse plasma samples and organ homogenates were determined using two independent validated high-performance liquid chromatography-tandem mass spectrometry assays.
(§3) Pharmacokinetic parameters were calculated by non-compartmental methods using the PK solver software. […] Differences were considered statistically significant when P < 0.05. All data are presented as mean ± SD.

[2] = Plasma pharmacokinetics of capecitabine and its metabolites after oral capecitabine in CES2-modified mice; assay type: in vivo, mouse; conditions: oral capecitabine 500 mg/kg, plasma
Method: as §1, §2, §3

SMILES: NCC(F)C(=O)O (stereo not shown) [FBAL]
- CSI (small intestine tissue concentration) ([1]; female Ces2^–/– mice): 1239 ± 335 ng/g
- Ccolon (colon concentration) ([1]; female Ces2^–/– mice): 1355 ± 281 ng/g
- Cliver (liver concentration) ([1]; female Ces2^–/– mice): 59839 ± 11722 ng/g
- Colon concentration ratio (metabolite/capecitabine) ([1]; female Ces2^–/– mice): 0.12 ± 0.05
- Liver concentration ratio (metabolite/capecitabine) ([1]; female Ces2^–/– mice): 4.2 ± 2.7
- Small intestine concentration ratio (metabolite/capecitabine) ([1]; female Ces2^–/– mice): 0.08 ± 0.05
- CSI (small intestine tissue concentration) ([1]; female Ces2^–/–A mice): 2193 ± 960 ng/g
- Ccolon (colon concentration) ([1]; female Ces2^–/–A mice): 2105 ± 600 ng/g
- Cliver (liver concentration) ([1]; female Ces2^–/–A mice): 102959 ± 17203 ng/g
- Colon concentration ratio (metabolite/capecitabine) ([1]; female Ces2^–/–A mice): 0.24 ± 0.02
- Liver concentration ratio (metabolite/capecitabine) ([1]; female Ces2^–/–A mice): 25 ± 11
- Small intestine concentration ratio (metabolite/capecitabine) ([1]; female Ces2^–/–A mice): 0.15 ± 0.04
- CSI (small intestine tissue concentration) ([1]; female Ces2^–/–V mice): 1830 ± 655 ng/g
- Ccolon (colon concentration) ([1]; female Ces2^–/–V mice): 2080 ± 446 ng/g
- Cliver (liver concentration) ([1]; female Ces2^–/–V mice): 77125 ± 16534 ng/g
- Colon concentration ratio (metabolite/capecitabine) ([1]; female Ces2^–/–V mice): 0.60 ± 0.36^###^
- Liver concentration ratio (metabolite/capecitabine) ([1]; female Ces2^–/–V mice): 18 ± 16
- Small intestine concentration ratio (metabolite/capecitabine) ([1]; female Ces2^–/–V mice): 1.5 ± 2.0^###^^^
- CSI (small intestine tissue concentration) ([1]; female wild-type mice): 1174 ± 174 ng/g
- Ccolon (colon concentration) ([1]; female wild-type mice): 1322 ± 249 ng/g
- Cliver (liver concentration) ([1]; female wild-type mice): 55840 ± 13861 ng/g
- Colon concentration ratio (metabolite/capecitabine) ([1]; female wild-type mice): 0.62 ± 0.16
- Liver concentration ratio (metabolite/capecitabine) ([1]; female wild-type mice): 48 ± 19
- Small intestine concentration ratio (metabolite/capecitabine) ([1]; female wild-type mice): 0.86 ± 0.38
- AUC0-2h ([2]; female Ces2^–/– mice): 1833 ± 504 ng·h/mL
- AUC0-2h ratio (metabolite/capecitabine) ([2]; female Ces2^–/– mice): 0.07 ± 0.04
- Cmax ([2]; female Ces2^–/– mice): 1684 ± 597 ng/mL
- Tmax ([2]; female Ces2^–/– mice): 2.0 ± 0.0 h
- AUC0-2h ([2]; female Ces2^–/–A mice): 2910 ± 671 ng·h/mL
- AUC0-2h ratio (metabolite/capecitabine) ([2]; female Ces2^–/–A mice): 0.12 ± 0.06
- Cmax ([2]; female Ces2^–/–A mice): 2923 ± 760 ng/mL
- Tmax ([2]; female Ces2^–/–A mice): 1.8 ± 0.4 h
- AUC0-2h ([2]; female Ces2^–/–V mice): 2874 ± 659 ng·h/mL
- AUC0-2h ratio (metabolite/capecitabine) ([2]; female Ces2^–/–V mice): 0.20 ± 0.09
- Cmax ([2]; female Ces2^–/–V mice): 2606 ± 698 ng/mL
- Tmax ([2]; female Ces2^–/–V mice): 2.0 ± 0.0 h
- AUC0-2h ([2]; female wild-type mice): 1966 ± 158 ng·h/mL
- AUC0-2h ratio (metabolite/capecitabine) ([2]; female wild-type mice): 0.35 ± 0.08
- Cmax ([2]; female wild-type mice): 1755 ± 308 ng/mL
- Tmax ([2]; female wild-type mice): 2.0 ± 0.0 h
